Earlier results in patent publication US20170027976A1, “NOVEL ADEMETIONINE FORMULATIONS” (METHYLATION SCIENCES INTERNATIONAL SRL, priority 2014, published 2017).

Conditions: background statement; large daily doses required

uptake of ademetionine: < 5%
Structure (SMILES): C[S+](CC[C@H](N)C(=O)[O-])C[C@H]1O[C@@H](n2cnc3c(N)ncnc32)[C@H](O)[C@@H]1O (stereo partly drawn) [ademetionine, S-adenosyl-L-methionine]
